Test results taken from patent publication US20040224958A1, “Pyridopyrimidinone derivatives for treatment of neurodegenerative disease” (priority 2000, published 2004).
Like-named read-outs stand apart in the source and are kept apart here.

What was measured:
[1] = molecular target: cdk4/D (Homo sapiens, UniProt P11802); assay: Cyclin-Dependent Kinase 4 (cdk4) Assay; assay type: biochemical
[2] = molecular target: Cdk5/p25 (Homo sapiens, UniProt Q00535); assay: Cyclin-Dependent Kinase 5 (cdk5) Assay; assay type: biochemical
Description: Cyclin-Dependent Kinase 5 (cdk5) Assay
Enzyme assays for IC50 determinations and kinetic evaluation were performed in 96-well filter plates (Millipore MAPH NOB 10). […] All components except histone and ATP were added to wells, and the plate was placed on a shaker for 5 minutes. The reaction was started by adding histone and [^32P]ATP, and the plate was shaken at 30° C. for 45 minutes. The reaction was terminated by addition of 0.1 mL of 150 mM phosphoric acid. The plate was kept at 4° C. for 30 minutes to allow substrate to precipitate. The wells were then washed three times with 0.2 mL of 75 mM phosphoric acid and ^32P incorporation was determined with a beta plate counter (Wallac Inc, Gaithersburg, Md.).

[3] = molecular target: cdk2/cyclinE (Homo sapiens, UniProt P24941); assay: Cyclin-Dependent Kinase Assay cdk2/cyclinE
Description: Cyclin-Dependent Kinase Assays (cdk2/cyclinE, cdk2/cyclinA, cdc2/cyclinB)
All components except the ATP were added to the wells, and the plate was placed on a plate mixer for 2 minutes. The reaction was begun by addition of [^32P]ATP, and the plate was incubated at 25° C. for 15 minutes. The reaction was terminated by addition of 0.1 mL of 20% TCA. The plate was kept at 4° C. for at least 1 hour to allow the substrate to precipitate. The wells were then washed five times with 0.2 mL of 10% TCA and ^32p incorporation determined with a beta plate counter (Wallac Inc., Gaithersburg, Md.).

[4] = molecular target: cdk2/cyclinA (Homo sapiens, UniProt P24941); assay: Cyclin-Dependent Kinase Assay cdk2/cyclinA
[5] = molecular target: cdc2/cyclinB (Homo sapiens, UniProt P06493); assay: Cyclin-Dependent Kinase Assay cdc2/cyclinB
Chain of cdc2/cyclinB (P06493 whole entry): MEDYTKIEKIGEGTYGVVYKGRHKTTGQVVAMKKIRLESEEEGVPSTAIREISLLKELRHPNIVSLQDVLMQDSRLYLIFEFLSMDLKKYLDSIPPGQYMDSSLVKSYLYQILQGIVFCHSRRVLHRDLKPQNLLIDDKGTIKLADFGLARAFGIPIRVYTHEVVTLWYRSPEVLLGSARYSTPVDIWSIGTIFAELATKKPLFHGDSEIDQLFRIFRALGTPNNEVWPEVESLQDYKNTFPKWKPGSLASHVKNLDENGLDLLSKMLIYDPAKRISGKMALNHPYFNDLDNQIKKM
Chain of cdc2/cyclinB (P14635 whole entry, further chain): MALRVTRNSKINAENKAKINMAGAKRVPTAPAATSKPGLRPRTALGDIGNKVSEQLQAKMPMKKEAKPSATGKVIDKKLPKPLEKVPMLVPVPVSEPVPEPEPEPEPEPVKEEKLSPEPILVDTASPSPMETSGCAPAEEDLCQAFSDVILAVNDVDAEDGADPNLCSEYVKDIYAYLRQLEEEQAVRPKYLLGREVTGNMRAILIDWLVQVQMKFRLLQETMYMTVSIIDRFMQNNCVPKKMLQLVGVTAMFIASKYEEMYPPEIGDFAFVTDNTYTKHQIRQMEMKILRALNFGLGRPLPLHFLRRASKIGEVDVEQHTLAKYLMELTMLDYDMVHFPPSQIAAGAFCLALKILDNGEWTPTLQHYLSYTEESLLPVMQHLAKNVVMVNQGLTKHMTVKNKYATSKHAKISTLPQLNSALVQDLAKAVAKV

Chain of cdk4/D (P11802 whole entry): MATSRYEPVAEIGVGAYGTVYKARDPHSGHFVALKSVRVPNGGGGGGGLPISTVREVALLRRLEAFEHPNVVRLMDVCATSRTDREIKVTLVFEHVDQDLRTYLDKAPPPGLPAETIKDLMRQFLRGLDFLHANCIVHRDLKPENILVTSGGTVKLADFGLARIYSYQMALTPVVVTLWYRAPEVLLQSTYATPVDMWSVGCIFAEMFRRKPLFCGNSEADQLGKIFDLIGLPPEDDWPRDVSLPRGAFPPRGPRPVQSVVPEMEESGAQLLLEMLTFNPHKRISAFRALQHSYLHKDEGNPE
Chain of cdk4/D (P24385 whole entry, further chain): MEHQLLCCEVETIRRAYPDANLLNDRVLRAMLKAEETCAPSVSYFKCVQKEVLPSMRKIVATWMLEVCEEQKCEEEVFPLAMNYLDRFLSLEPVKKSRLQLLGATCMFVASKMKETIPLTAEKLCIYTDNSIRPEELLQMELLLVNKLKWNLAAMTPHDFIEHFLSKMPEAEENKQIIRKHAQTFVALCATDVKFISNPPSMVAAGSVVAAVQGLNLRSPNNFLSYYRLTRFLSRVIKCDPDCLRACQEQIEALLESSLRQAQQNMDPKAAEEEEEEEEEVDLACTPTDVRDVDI

Structure (SMILES) | IC50 ([1]; Table 1, read-out: cdk4/D IC50) | IC50 ([2]; Table 1) | melting point | IC50 ([3]; cdk2/E IC50, Table 1) | IC50 ([4]; cdk2/A IC50, Table 1) | IC50 [5] | IC50 ([1]; Table 3, read-out: Cdk4 IC50) | IC50 ([2]; Table 3) | IC50 ([3]; Cdk2/E IC50, Table 3) | IC50 ([4]; Cdk2/A IC50, Table 3)
CC1CN(c2ccc(Nc3ncc4ccc(=O)n(C5CCCCC5)c4n3)cc2)CC(C)N1 (centres unmarked) [Example 145, 8-Cyclohexyl-2-14-(3,5-dimethyl-piperazin-1-yl)-phenylamino-8H-pyrido[2,3-d]pyrimidin-7-one] | 4.5 nM | 17.3 nM | 237 to 239 °C | 45.5 nM | 32.5 nM | 146 nM | – | – | – | –
CN1CCN(c2ccc(Nc3ncc4ccc(=O)n(C5CCCCC5)c4n3)cc2)CC1 [Example 133, 8-Cyclohexyl-2-[4-(4-methyl-piperazin-1-yl)-phenylamino]-8H-pyrido[2,3-d]pyrimidin-7-one] | 4.5 nM | 6.9 nM | 205 to 207 °C | 19.7 nM | 15 nM | 78.5 nM | – | – | – | –
O=c1ccc2cnc(Nc3ccc(N4CCCC(CO)C4)cc3)nc2n1C1CC2CCC1C2 (centres unmarked) [Example 231, 8-Bicyclo[2.2.1]hept-2-yl-2-[4-(3-hydroxymethyl-piperidin-1-yl)-phenylamino]-8H-pyrido[2,3-d]pyrimidin-7-one] | 2.1 nM | 167 nM | 152 °C | 85 nM | 63 nM | 220 nM | – | – | – | –
O=c1ccc2cnc(Nc3ccc(-n4cccc4)cc3)nc2n1C1CCCCC1 [Example 161, 8-Cyclohexyl-2-(4-pyrrole-1-yl-phenylamino)-811-pyrido[2,3-d]pyrimidin-7-one] | 275 nM | 43.1 nM | 183 to 184 °C | 554 nM | 104 nM | 450 nM | – | – | – | –
CC1CC(C)CN(c2ccc(Nc3ncc4ccc(=O)n(C5CCCCC5)c4n3)cc2)C1 (centres unmarked) [Example 167] | 430 nM | 2680 nM | 238 to 240 °C | – | 272 nM | 8910 nM | – | – | – | –
O=c1ccc2cnc(Nc3ccc(N4CCc5ccccc5C4)cc3)nc2n1C1CCCCC1 [Example 171, 8-Cyclohexyl-2-[4-(3,4-dihydro-1H-isoquinolin-2-yl)-phenylamino]-8H-pyrido[2,3-d]pyrimidin-7-one] | – | 419 nM | 185 °C | 320 nM | 123 nM | 1210 nM | – | – | – | –
O=c1ccc2cnc(Nc3ccc(N4CCC(O)CC4)cc3)nc2n1C1CCCCC1 [Example 215, 8-Cyclohexyl-2-[4-(4-hydroxy-piperidin-1-yl)-phenylamino]-8H-pyrido[2,3-d]pyrimidin-7-one] | 7.5 nM | 24.4 nM | 224 to 225 °C | 24 nM | 8.4 nM | 112 nM | – | – | – | –
O=c1ccc2cnc(Nc3ccc(N4CCC(CCO)CC4)cc3)nc2n1C1CC2CCC1C2 (centres unmarked) [Example 228, 8-Bicyclo[2.2.1]hept-2-yl-2-{4-[4-(2-hydroxy-ethyl)-piperidin-1-yl]-phenylamino}-8H-pyrido[2,3-d]pyrimidin-7-one] | 5.5 nM | 38.8 nM | 202 °C | 185 nM | 98.5 nM | 380 nM | – | – | – | –
O=c1ccc2cnc(Nc3ccc(N4CCCC4)cc3)nc2n1C1CCCCC1 [Example 160, 8-Cyclohexyl-2-(4-pyrrolidin-1-yl-phenylamino)-8H1-pyrido[2,3-d]pyrimidin-7-one] | 175 nM | 113 nM | 199 to 200 °C | – | 61 nM | 250 nM | – | – | – | –
O=c1ccc2cnc(Nc3ccc(N4CCC(O)CC4)cc3)nc2n1C1CC2CCC1C2 (centres unmarked) [Example 227, 8-Bicyclo[2.2.1]hept-2-yl-2-[4-(4-hydroxy-piperidin-1-yl)-phenylamino]-8H-pyrido[2,3-d]pyrimidin-7-one] | 2.8 nM | 36 nM | 206 °C | 56 nM | 20.7 nM | 82.5 nM | – | – | – | –
O=c1ccc2cnc(Nc3ccc(OC(F)(F)C(F)F)cc3)nc2n1C1CC2CCC1C2 (centres unmarked) [Example 219, 8-Bicyclo[2.2.1]hept-2-yl-2-[4-(1,1,2,2-tetrafluoro-ethoxy)-phenylamino]-8H-pyrido[2,3-d]pyrimidin-7-one] | 780 nM | 568 nM | 214 to 215 °C | 31900 nM | 6610 nM | 7070 nM | – | – | – | –
O=c1ccc2cnc(Nc3ccc(N4CCCC(CCCO)C4)cc3)nc2n1C1CC2CCC1C2 (centres unmarked) [Example 236, 8-Bicyclo[2.2.1]hept-2-yl-2-{4-[3-(3-hydroxy-propy)-piperidin-1-yl]-phenylamino}-8H-pyrido[2,3-d]pyrimidin-7-one] | 6.9 nM | 395 nM | 150 to 151 °C | – | 13.6 nM | 674 nM | – | – | – | –
CC1CCN(c2ccc(Nc3ncc4ccc(=O)n(C5CCCCC5)c4n3)cc2)CC1 [Example 159, 8-Cyclohexyl-2-[4-(4-methyl-piperidin-1-yl)-phenylamino]-8H-pyrido[2,3-d]pyrimidin-7-one] | 4.5 nM | 6.9 nM | 208 to 209 °C | 19.7 nM | 15 nM | 78.5 nM | – | – | – | –
O=c1ccc2cnc(Nc3ccc(N4CCC(CCCN5CCOCC5)CC4)cc3)nc2n1C1CC2CCC1C2 (centres unmarked) [Example 235, 8-Bicyclo[2.2.1]hept-2-yl-2-{4-[4-(3-morpholin-4-yl-propyl)-piperidin-1-yl]-phenylamino}-8H-pyrido[2,3-d]pyrimidin-7-one] | 37 nM | 1460 nM | 197 to 198 °C | – | 96 nM | 1700 nM | – | – | – | –
CC(C)n1c(=O)ccc2cnc(Nc3cccc([N+](=O)[O-])c3)nc21 [Example 623, 8-Isopropyl-2-(3-nitro-phenylamino)-8H-pyrido[2,3-d]pyrimidin-7-one] | – | – | 202 to 203 °C | – | – | – | 6250 nM | 21 nM | 760 nM | 297 nM
CCN(CC)CCOc1ccc(Nc2ncc3ccc(=O)n(-c4ccccc4)c3n2)cc1 [Example 118, 2-[4-(2-Diethylamino-ethoxy)-phenylamino]-8-phenyl-8H-pyrido[2,3-d]pyrimidin-7-one] | 200 nM | 237 nM | 165 to 167 °C | 1300 nM | 206 nM | – | – | – | – | –
O=c1ccc2cnc(Nc3ccc(N4CCCCC4)cc3)nc2n1[C@@H]1C[C@H]2CC[C@@H]1C2 (relative stereo) [Example 181, 8-Bicyclo[2.2.1]hept-2-yl-2-(4-piperidin-1-yl-phenylamino)-8H-pyrido[2,3-d]pyrimidin-7-one] | 57.7 nM | 591 nM | 243 to 244 °C | – | 195 nM | 33400 nM | – | – | – | –
CN1CCN(c2ccc(Nc3ncc4ccc(=O)n(C5CC6CCC5C6)c4n3)cc2)CC1 (centres unmarked) [Example 252] | 6.1 nM | 23.7 nM | 233 to 234 °C | 102 nM | 42.5 nM | 160 nM | – | – | – | –
O=c1ccc2cnc(Nc3ccc(N4CCCCC4CO)cc3)nc2n1C1CC2CCC1C2 (centres unmarked) [Example 253] | 11.5 nM | 300 nM | 160 to 161 °C | 149 nM | 110 nM | 670 nM | – | – | – | –
CCN(CC)CCOc1ccc(Nc2ncc3ccc(=O)n(C4CCCCC4)c3n2)cc1 [Example 132, 8-Cyclohexyl-2-[4-(2-diethylamino-ethoxy)-phenylamino]-8H-pyrido[2,3-d]pyrimidin-7-one] | 10.5 nM | 25.9 nM | 135 to 137 °C | 91 nM | 60.5 nM | 373 nM | – | – | – | –
O=c1ccc2cnc(Nc3ccc(-n4cccn4)cc3)nc2n1C1CCCCC1 [Example 162, 8-Cyclohexyl-2-(4-pyrazol-1-yl-phenylamino)-8H-pyrido[2,3-d]pyrimidin-7-one] | 89 nM | 42.5 nM | 241 to 242 °C | 87 nM | 35.7 nM | 267 nM | – | – | – | –
O=c1ccc2cnc(Nc3ccc(F)c(F)c3)nc2n1C1CC2CCC1C2 (centres unmarked) [Example 220, 8-Bicyclo[2.2.1]hept-2-yl-2-(3,4-difluoro-phenylamino)-8H-pyrido[2,3-d]pyrimidin-7-one] | 115 nM | 66.2 nM | 227 to 228 °C | 50 nM | 57.8 nM | 1660 nM | – | – | – | –
CCN(CC)CCOc1ccc(Nc2ncc3ccc(=O)n(C4CC5CCC4C5)c3n2)cc1 (centres unmarked) [Example 224, 8-Bicyclo[2.2.1]hept-2-yl-2-[4-(2-diethylamino-ethoxy)-phenylamino]-8H-pyrido[2,3-d]pyrimidin-7-one] | – | 53.2 nM | 133 to 134 °C | 75 nM | 81.5 nM | 200 nM | – | – | – | –
CCN(CC)CCOc1ccc(Nc2ncc3ccc(=O)n(C4CCCC4)c3n2)cc1 [Example 117, 8-Cyclopentyl-2-[4-(2-diethylamino-ethoxy)-phenylamino]-8H-pyrido[2,3-d]pyrimidin-7-one] | 6.6 nM | 19 nM | 105 to 107 °C | 109 nM | 42.5 nM | – | – | – | – | –
